Laboratory results: US4564619A, “Carbostyril derivative” (Otsuka Pharmaceutical Co., Ltd., priority 1982, dated 1986)

Assays:
[1] = system: collagen-induced aggregation in rabbit platelets; experiment: Inhibition of collagen-induced platelet aggregation in rabbit platelet rich plasma; format: cell-based; details: Oryctolagus cuniculus, read-out: Inhibition rate of collagen-induced aggregation; for inhibition at 100 µM (stock): Concentration of the test compound solution 10^-4 mole; for inhibition at 10 µM (stock): Concentration of the test compound solution 10^-5 mole
Procedure, shortened: (§1)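 Citrated rabbit PRP adjusted to 600,000 platelets/μl with PPP, preincubated with test compound 1 min at 37° C, then challenged with ADP (solution prepared at 7.5×10^-5 M) or collagen (solution at 200 μg/ml). Aggregation followed by light transmittance; % inhibition relative to control aggregation rate.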

[2] = system: ADP-induced aggregation in rabbit platelets; experiment: Inhibition of ADP-induced platelet aggregation in rabbit platelet rich plasma; format: cell-based; details: Oryctolagus cuniculus, read-out: Inhibition rate of ADP-induced aggregation; for inhibition at 100 µM (stock): Concentration of the test compound solution 10^-4 mole; for inhibition at 10 µM (stock): Concentration of the test compound solution 10^-5 mole
Procedure, shortened: as §1

coronary artery = experiment: Increased amount of the blood flow in coronary artery, intravenous administration, anesthetized dog; format: in vivo
Procedure, shortened: (§2)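 Pentobarbital-anesthetized (30 mg/kg i.v.), heparinized, thoracotomized dogs of either sex, 8-13 kg, under forced breathing; compound given via femoral vein. Coronary sinus outflow measured by electromagnetic flowmeter in an extracorporeal venous circuit to the carotid; blood pressure recorded from femoral artery.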

[3] = Change of blood pressure, intravenous administration, anesthetized dog; format: in vivo; set-up: unit not given here; details: femoral artery
Procedure, shortened: as §2

Row | SMILES | inhibition at 100 µM (stock) [1] | inhibition at 10 µM (stock) [1] | inhibition at 100 µM (stock) [2] | inhibition at 10 µM (stock) [2] | Increased amount of the blood flow in coronary artery (coronary artery; 100 micrograms/kg) | Increased amount of the blood flow in coronary artery (coronary artery; 300 micrograms/kg) | Increased amount of the blood flow in coronary artery (coronary artery; 1000 micrograms/kg) | Change of blood pressure ([3]; 10 micrograms/kg) | Change of blood pressure ([3]; 30 micrograms/kg) | Change of blood pressure ([3]; 100 micrograms/kg) | Change of blood pressure ([3]; 300 micrograms/kg)
1 | COC(=O)C1=C(C)NC(C)=C(C(=O)OCCN(C(=O)CCCOc2ccc3[nH]c(=O)ccc3c2)C2CCCCC2)C1c1cccc([N+](=O)[O-])c1 (stereo not drawn) [Compound 31, N--{2-[1,4-Dihydro-2,6-dimethyl-5-methoxycarbonyl-4-(3-nitrophenyl)pyridin-3-carboxy]ethyl}-N--cyclohexyl-4-(6-carbostyriloxy)butyramide] | 100% | 100% | 100% | 84% | 6 mL/min | 32 mL/min | 61 mL/min | -1 | -4 | -8 | -23
2 | COC(=O)C1=C(C)NC(C)=C(C(=O)OCCN(C(=O)CCCOc2ccc3c(c2)CCC(=O)N3)C2CCCCC2)C1c1ccccc1[N+](=O)[O-] (stereo not drawn) [Compound 32, N--{2-[1,4-Dihydro-2,6-dimethyl-5-methoxycarbonyl-4-(2-nitrophenyl)pyridin-3-carboxy]ethyl}-N--cyclohexyl-4-(3,4-dihydro-6-carbostyriloxy)-butyramide] | 100% | 34% | 98% | 25% | 16 mL/min | 55 mL/min | 97 mL/min | -1 | -6 | -8 | -19
3 | COC(=O)C1=C(C)NC(C)=C(C(=O)OCCN(C(=O)CCCOc2ccc3[nH]c(=O)ccc3c2)C2CCCCC2)C1c1ccccc1 (stereo not drawn) [Compound 35, N--[2-(1,4-Dihydro-2,6-dimethyl-5-methoxycarbonyl-4-phenylpyridin-3-carboxy)ethyl]-N--cyclohexyl-4-(6-carbostyriloxy)butyramide] | 100% | 100% | 100% | 89% | 5 mL/min | 17 mL/min | 47 mL/min | -4 | -6 | -9 | -26
